Source: patent US20250073340A1, “SPIROCYCLIC MDM2 MODULATOR AND USES THEREOF” (Newave Pharmaceutical Inc., priority 2021, published 2025)

Target: MDM2 (Homo sapiens (Human), UniProt Q00987)
Test: In vitro MDM2 HTRF assay (inhibition of p53-MDM2 interaction)
Assay type: binding
Details: GST-MDM2 / biotinylated p53 peptide

Chain of MDM2 (Q00987 whole entry): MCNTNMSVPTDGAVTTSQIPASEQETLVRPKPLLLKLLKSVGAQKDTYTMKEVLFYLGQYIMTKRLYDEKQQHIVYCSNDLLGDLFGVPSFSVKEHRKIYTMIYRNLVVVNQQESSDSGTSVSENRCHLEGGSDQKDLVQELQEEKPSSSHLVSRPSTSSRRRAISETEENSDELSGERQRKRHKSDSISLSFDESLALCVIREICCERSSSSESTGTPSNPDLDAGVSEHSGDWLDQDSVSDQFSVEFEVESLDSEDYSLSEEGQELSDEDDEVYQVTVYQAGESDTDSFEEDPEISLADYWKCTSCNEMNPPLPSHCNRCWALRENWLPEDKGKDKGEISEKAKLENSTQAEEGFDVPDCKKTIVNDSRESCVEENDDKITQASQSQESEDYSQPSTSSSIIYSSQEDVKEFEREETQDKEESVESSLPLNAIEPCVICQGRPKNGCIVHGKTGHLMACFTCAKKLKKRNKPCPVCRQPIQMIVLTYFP

Compound	IC50 [µM]
COc1cc(N2CCC[C@@H](C#Cc3cccc4c3CN([C@H]3CCC(=O)NC3=O)C4=O)C2)ccc1NC(=O)[C@@H]1N[C@@H](CC(C)(C)C)[C@@]2(CNc3cc(Cl)ccc32)[C@H]1c1cccc(Cl)c1F [Example 30, (2′S,3S,4′S,5′R)-6-chloro-4′-(3-chloro-2-fluorophenyl)-N-(4-((S)-3-((2-((S)-2,6-dioxopiperidin-3-yl)-1-oxoisoindolin-4-yl)ethynyl)piperidin-1-yl)-2-methoxyphenyl)-2′-neopentylspiro[indoline-3,3′-pyrrolidine]-5′-carboxamide]	0.0132
COc1cc(C(=O)NCCCC#Cc2cccc3c2CN(C2CCC(=O)N(C)C2=O)C3=O)ccc1NC(=O)[C@@H]1N[C@@H](CC(C)(C)C)[C@@]2(CNc3cc(Cl)ccc32)[C@H]1c1cccc(Cl)c1F (stereo partly drawn) [Example 19, (2′S,3S,4′S,5′R)-6-chloro-4′-(3-chloro-2-fluorophenyl)-2′-(2,2-dimethylpropyl)-N-[2-methoxy-4-({5-[2-(1-methyl-2,6-dioxopiperidin-3-yl)-1-oxo-3H-isoindol-4-yl]pent-4-yn-1-yl}carbamoyl)phenyl]-1,2-dihydrospiro[indole-3,3′-pyrrolidine]-5′-carboxamide]	0.00203
COc1cc(N2CCC[C@H](C#Cc3cccc4c3CN([C@H]3CCC(=O)NC3=O)C4=O)C2)ccc1NC(=O)[C@@H]1N[C@@H](CC(C)(C)C)[C@@]2(CNc3cc(Cl)ccc32)[C@H]1c1cccc(Cl)c1F [Example 28, (2′S,3S,4′S,5′R)-6-chloro-4′-(3-chloro-2-fluorophenyl)-N-(4-((R)-3-((2-((S)-2,6-dioxopiperidin-3-yl)-1-oxoisoindolin-4-yl)ethynyl)piperidin-1-yl)-2-methoxyphenyl)-2′-neopentylspiro[indoline-3,3′-pyrrolidine]-5′-carboxamide]	0.0108

System: BCL-2-dependent acute lymphoblastic leukemia (ALL) cell line RS4;11 overexpressing Bcl-2 G101V
Test: cells
Assay type: cell-based
Details: Homo sapiens, RS4-11, 72 h, read-out: RS4;11-G101V IC50
Description: Biological Example 2: In vitro Anti-proliferation Assay in BCL-2-dependent acute lymphoblastic leukemia (ALL) cell line RS4; 11 overexpressing Bcl-2 G101V
Cell antiproliferation was assayed by PerkinElmer ATPlite™ Luminescence Assay System. Briefly, the various test cancer cell lines were plated at a density of about 1×10^4 cells per well in Costar 96-well plates, and were incubated with different concentrations of compounds for about 72 hours in medium supplemented with 5% FBS or 10% normal human serum (NHS). One lyophilized substrate solution vial was then reconstituted by adding 5 mL of substrate buffer solution, and was agitated gently until the solution was homogeneous. About 50 μL of mammalian cell lysis solution was added to 100 μL of cell suspension per well of a microplate, and the plate was shaken for about five minutes in an orbital shaker at −700 rpm. This procedure was used to lyse the cells and to stabilize the ATP. Next, 50 μL substrate solution was added to the wells and microplate was shaken for five minutes in an orbital shaker at −700 rpm. Finally, the luminescence was measured by a PerkinElmer TopCount® Microplate Scintillation Counter. Such assays, carried out with a range of doses of test compounds, allowed the determination of the cellular anti-antiproliferative IC50 of the compounds of the present invention.

Compound	IC50 [µM]
COc1cc(C(N)=O)ccc1NC(=O)[C@@H]1N[C@@H](CC(C)(C)C)[C@@]2(CNc3cc(Cl)ccc32)[C@H]1c1cccc(Cl)c1F [Example 1, (2′S,3S,4′S,5′R)—N-(4-carbamoyl-2-methoxyphenyl)-6-chloro-4′-(3-chloro-2-fluorophenyl)-2′-neopentylspiro[indoline-3,3′-pyrrolidine]-5′-carboxamide]	0.033

Same assay, conditions: Homo sapiens, RS4-11; about 72 hours, ATPlite luminescence; read-out: RS4;11-G101V IC50

Compound	IC50 [µM]
COc1cc(C(=O)N2CCCC[C@@H]2C#CC#Cc2cccc3c2CN(C2CCC(=O)NC2=O)C3=O)ccc1NC(=O)[C@@H]1N[C@@H](CC(C)(C)C)[C@@]2(CNc3cc(Cl)ccc32)[C@H]1c1cccc(Cl)c1F (stereo partly drawn) [Example 46, (2′S,3S,4′S,5′R)-6-chloro-4′-(3-chloro-2-fluorophenyl)-2′-(2,2-dimethylpropyl)-N-{4-[(2R)-2-{4-[2-(2,6-dioxopiperidin-3-yl)-1-oxo-3H-isoindol-4-yl]buta-1,3-diyn-1-yl}piperidine-1-carbonyl]-2-methoxyphenyl}-1,2-dihydrospiro[indole-3,3′-pyrrolidine]-5′-carboxamide]	> 1
COc1cc(C(=O)O)ccc1NC(=O)[C@@H]1N[C@@H](CC(C)(C)C)[C@](C#N)(c2ccc(Cl)cc2F)[C@H]1c1cccc(Cl)c1F [RG7388, reference compound]	0.11
COc1cc(C(=O)N2CCC[C@]3(C[C@@H]3C#Cc3cccc4c3CN([C@H]3CCC(=O)NC3=O)C4=O)C2)ccc1NC(=O)[C@@H]1N[C@@H](CC(C)(C)C)[C@@]2(CNc3cc(Cl)ccc32)[C@H]1c1cccc(Cl)c1F [Example 64, (2′S,3S,4′S,5′R)-6-chloro-4′-(3-chloro-2-fluorophenyl)-2′-(2,2-dimethylpropyl)-N-{4-[(1R,3R)-1-(2-{2-[(3S)-2,6-dioxopiperidin-3-yl]-1-oxo-3H-isoindol-4-yl}ethynyl)-5-azaspiro[2.5]octane-5-carbonyl]-2-methoxyphenyl}-1,2-dihydrospiro[indole-3,3′-pyrrolidine]-5′-carboxamide]	0.188
COc1cc(C(=O)N2CCCC[C@H]2C#CC#Cc2cccc3c2CN(C2CCC(=O)NC2=O)C3=O)ccc1NC(=O)[C@@H]1N[C@@H](CC(C)(C)C)[C@@]2(CNc3cc(Cl)ccc32)[C@H]1c1cccc(Cl)c1F (stereo partly drawn) [Example 47, (2′S,3S,4′S,5′R)-6-chloro-4′-(3-chloro-2-fluorophenyl)-2′-(2,2-dimethylpropyl)-N-{4-[(2S)-2-{4-[2-(2,6-dioxopiperidin-3-yl)-1-oxo-3H-isoindol-4-yl]buta-1,3-diyn-1-yl}piperidine-1-carbonyl]-2-methoxyphenyl}-1,2-dihydrospiro[indole-3,3′-pyrrolidine]-5′-carboxamide]	> 1
COc1cc(C(=O)N2CCC[C@]3(C[C@H]3C#Cc3cccc4c3CN([C@H]3CCC(=O)NC3=O)C4=O)C2)ccc1NC(=O)[C@@H]1N[C@@H](CC(C)(C)C)[C@@]2(CNc3cc(Cl)ccc32)[C@H]1c1cccc(Cl)c1F [Example 63, (2′S,3S,4′S,5′R)-6-chloro-4′-(3-chloro-2-fluorophenyl)-2′-(2,2-dimethylpropyl)-N-{4-[(1S,3R)-1-(2-{2-[(3S)-2,6-dioxopiperidin-3-yl]-1-oxo-3H-isoindol-4-yl}ethynyl)-5-azaspiro[2.5]octane-5-carbonyl]-2-methoxyphenyl}-1,2-dihydrospiro[indole-3,3′-pyrrolidine]-5′-carboxamide]	0.0416
COc1cc(C(=O)N2CCC[C@@]3(C[C@H]3C#Cc3cccc4c3CN([C@H]3CCC(=O)NC3=O)C4=O)C2)ccc1NC(=O)[C@@H]1N[C@@H](CC(C)(C)C)[C@@]2(CNc3cc(Cl)ccc32)[C@H]1c1cccc(Cl)c1F [Example 61, (2′S,3S,4′S,5′R)-6-chloro-4′-(3-chloro-2-fluorophenyl)-2′-(2,2-dimethylpropyl)-N-{4-[(1S,3S)-1-(2-{2-[(3S)-2,6-dioxopiperidin-3-yl]-1-oxo-3H-isoindol-4-yl}ethynyl)-5-azaspiro[2.5]octane-5-carbonyl]-2-methoxyphenyl}-1,2-dihydrospiro[indole-3,3′-pyrrolidine]-5′-carboxamide]	0.00575
COc1cc(C(N)=O)ccc1NC(=O)[C@@]1(C)N[C@H](CC(C)(C)C)[C@]2(CNc3cc(Cl)ccc32)[C@@H]1c1cccc(Cl)c1F [Example 8, (2′R,3R,4′R,5′S)—N-(4-carbamoyl-2-methoxyphenyl)-6-chloro-4′-(3-chloro-2-fluorophenyl)-2′-(2,2-dimethylpropyl)-5′-methyl-1,2-dihydrospiro[indole-3,3′-pyrrolidine]-5′-carboxamide]	0.127
COc1cc(C(=O)N2CC(C#Cc3cccc4c3CN(C3CCC(=O)NC3=O)C4=O)C2)ccc1NC(=O)[C@@H]1N[C@@H](CC(C)(C)C)[C@@]2(CNc3cc(Cl)ccc32)[C@H]1c1cccc(Cl)c1F (stereo partly drawn) [Example 55, (2′S,3S,4′S,5′R)-6-chloro-4′-(3-chloro-2-fluorophenyl)-2′-(2,2-dimethylpropyl)-N-[4-(3-{2-[2-(2,6-dioxopiperidin-3-yl)-1-oxo-3H-isoindol-4-yl]ethynyl}azetidine-1-carbonyl)-2-methoxyphenyl]-1,2-dihydrospiro[indole-3,3′-pyrrolidine]-5′-carboxamide]	0.0112
COc1cc(C(=O)N[C@@H]2CCCC[C@@H]2CC#Cc2cccc3c2CN(C2CCC(=O)NC2=O)C3=O)ccc1NC(=O)[C@@H]1N[C@@H](CC(C)(C)C)[C@@]2(CNc3cc(Cl)ccc32)[C@H]1c1cccc(Cl)c1F (stereo partly drawn) [Example 41, (2′S,3S,4′S,5′R)-6-chloro-4′-(3-chloro-2-fluorophenyl)-2′-(2,2-dimethylpropyl)-N-(4-{[(1R,2R)-2-{3-[2-(2,6-dioxopiperidin-3-yl)-1-oxo-3H-isoindol-4-yl]prop-2-yn-1-yl}cyclohexyl]carbamoyl}-2-methoxyphenyl)-1,2-dihydrospiro[indole-3,3′-pyrrolidine]-5′-carboxamide]	0.0543
COc1cc(C(=O)N2CCC[C@@]3(C[C@@H]3C#Cc3cccc4c3CN([C@H]3CCC(=O)NC3=O)C4=O)C2)ccc1NC(=O)[C@@H]1N[C@@H](CC(C)(C)C)[C@@]2(CNc3cc(Cl)ccc32)[C@H]1c1cccc(Cl)c1F [Example 62, (2′S,3S,4′S,5′R)-6-chloro-4′-(3-chloro-2-fluorophenyl)-2′-(2,2-dimethylpropyl)-N-{4-[(1R,3S)-1-(2-{2-[(3S)-2,6-dioxopiperidin-3-yl]-1-oxo-3H-isoindol-4-yl}ethynyl)-5-azaspiro[2.5]octane-5-carbonyl]-2-methoxyphenyl}-1,2-dihydrospiro[indole-3,3′-pyrrolidine]-5′-carboxamide]	0.0402
COc1cc(C(=O)N[C@H]2CCCC[C@H]2CC#Cc2cccc3c2CN(C2CCC(=O)NC2=O)C3=O)ccc1NC(=O)[C@@H]1N[C@@H](CC(C)(C)C)[C@@]2(CNc3cc(Cl)ccc32)[C@H]1c1cccc(Cl)c1F (stereo partly drawn) [Example 40, (2′S,3S,4′S,5′R)-6-chloro-4′-(3-chloro-2-fluorophenyl)-2′-(2,2-dimethylpropyl)-N-(4-{[(1S,2S)-2-{3-[2-(2,6-dioxopiperidin-3-yl)-1-oxo-3H-isoindol-4-yl]prop-2-yn-1-yl}cyclohexyl]carbamoyl}-2-methoxyphenyl)-1,2-dihydrospiro[indole-3,3′-pyrrolidine]-5′-carboxamide]	0.0114
